Measurements published in patent publication US7323469B2, “7H-pyrrolo[2,3-d]pyrimidine derivatives” (Novartis AG, priority 2001, dated 2008).

Row | SMILES | melting point
1 | COc1cccc(CNc2ncnc3[nH]c(-c4ccc(CN5CCOCC5)cc4)cc23)c1 [Example 107a, (3-Methoxy-benzyl)-[6-(4-morpholin-4-ylmethyl-phenyl)-7H-pyrrolo[2,3-d]pyrimidin-4-yl]-amine] | 263 to 265 °C
2 | COc1ccc(Nc2ncnc3[nH]c(-c4cccc(CN5CCN(C)CC5)c4)cc23)cc1O [Example 69, 2-Methoxy-5-{6-[3-(4-methyl-piperazin-1-ylmethyl)-phenyl]-7H-pyrrolo[2,3-d]pyrimidin-4-ylamino}-phenol] | 251 to 252 °C
3 | CCN(CC)CCNCc1ccc(-c2cc3c(Nc4ccc(F)c(Cl)c4)ncnc3[nH]2)cc1 [Example 8c, N-{4-[4-(3-Chloro-4-fluoro-phenylamino)-7H-pyrrolo[2,3-d]pyrimidin-6-yl]-benzyl}-N′,N′-diethyl-ethane-1,2-diamine] | 229 to 231 °C
4 | C[C@@H](Nc1ncnc2[nH]c(-c3ccc(CNC(=O)c4ccccn4)cc3)cc12)c1ccccc1 [Example 57, Pyridine-2-carboxylic acid 4-[4-((R)-1-phenyl-ethylamino)-7H-pyrrolo[2,3-d]pyrimidin-6-yl]-benzylamide] | 221 to 223 °C
5 | Clc1ccccc1CNc1ncnc2[nH]c(-c3ccc(CN4CCCC4)cc3)cc12 [Example 95, (2-Chloro-benzyl)-[6-(4-pyrrolidin-1-ylmethyl-phenyl)-7H-pyrrolo[2,3-d]pyrimidin-4-yl]-amine] | 264 to 265 °C
6 | C[C@@H](Nc1ncnc2[nH]c(-c3ccc(CNC(=O)CN4CCOCC4)cc3)cc12)c1ccccc1 [Example 42, 2-Morpholin-4-yl-N-{4-[4-((R)-1-phenyl-ethyl-amino)-7H-pyrrolo[2,3-d]pyrimidin-6-yl]-benzyl}-acetamide] | 199 to 202 °C
7 | CC1CN(Cc2ccc(-c3cc4c(N[C@H](C)c5ccccc5)ncnc4[nH]3)cc2)CC(C)N1 (stereo partly drawn) [Example 16, {6-[4-(3,5-Dimethyl-piperazin-1-ylmethyl)-phenyl]-7H-pyrrolo[2,3-d]pyrimidin-4-yl}-((R)-1-phenyl-ethyl)-amine] | 208 to 210 °C
8 | Cl.Clc1cccc(Nc2ncnc3[nH]c(-c4ccc(CN5CCOCC5)cc4)cc23)c1 | 278 to 280 °C
9 | Fc1ccc(Nc2ncnc3[nH]c(-c4cccc(CN5CCCC5)c4)cc23)cc1Cl [Example 36, (3-Chloro-4-fluoro-phenyl)-[6-(3-pyrrolidin-1-ylmethyl-phenyl)-7H-pyrrolo[2,3-d]pyrimidin-4-yl]-amine] | 238 to 240 °C
10 | CC1CN(Cc2cccc(-c3cc4c(N[C@H](C)c5ccccc5)ncnc4[nH]3)c2)CC(C)N1 (stereo partly drawn) [Example 32, {6-[3-(3,5-Dimethyl-piperazin-1-ylmethyl)-phenyl]-7H-pyrrolo[2,3-d]pyrimidin-4-yl}-((R)-1-phenyl-ethyl)-amine] | 128 to 130 °C
11 | CN1CCN(Cc2ccc(-c3cc4c(Nc5cccc(Cl)c5)ncnc4[nH]3)cc2)CC1.Cl.Cl | 227 to 229 °C
12 | CCN1CCN(Cc2ccc(-c3cc4c(NCc5cc(Cl)ccc5Cl)ncnc4[nH]3)cc2)CC1 [Example 97, (2,5-Dichloro-benzyl)-{6-[4-(4-ethyl-piperazin-1-ylmethyl)-phenyl]-7H-pyrrolo[2,3-d]pyrimidin-4-yl}-amine] | 249 to 251 °C
13 | COc1ccc(Nc2ncnc3[nH]c(-c4ccc(CN5CCN(C)CC5)cc4)cc23)cn1 [Example 112, (6-Methoxy-pyridin-3-yl)-{6-[4-(4-methyl-piperazin-1-ylmethyl)-phenyl]-7H-pyrrolo[2,3-d]pyrimidin-4-yl}-amine] | 241 to 242 °C
14 | C[C@@H](Nc1ncnc2[nH]c(-c3cccc(CN(C)C)c3)cc12)c1ccccc1 [Example 25, [6-(3-Dimethylaminomethyl-phenyl)-7H-pyrrolo[2,3-d]pyrimidin-4-yl]-((R)-1-phenyl-ethyl)-amine] | 108 to 110 °C
15 | Cc1ccc(Nc2ncnc3[nH]c(-c4ccc(CN5CCN(C)CC5)cc4)cc23)cc1O [Example 72, 2-Methyl-5-{6-[4-(4-methyl-piperazin-1-ylmethyl)-phenyl]-7H-pyrrolo[2,3-d]pyrimidin-4-ylamino}-phenol] | > 300 °C
16 | CN1CCN(Cc2ccc(-c3cc4c(NCc5cc(Cl)ccc5Cl)ncnc4[nH]3)cc2)CC1 [Example 102, (2,5-Dichloro-benzyl)-{6-[4-(4-methyl-piperazin-1-ylmethyl)-phenyl]-7H-pyrrolo[2,3-d]pyrimidin-4-yl)-amine] | 244 to 246 °C
17 | C[C@@H](Nc1ncnc2[nH]c(-c3ccc(CNC(=O)CN(C)C)cc3)cc12)c1ccccc1 [Example 44, 2-Dimethylamino-N-{4-[4-((R)-1-phenyl-ethyl-amino)-7H-pyrrolo[2,3-d]pyrimidin-6-yl]-benzyl}-acetamide] | 263 to 266 °C
18 | CN(C)Cc1ccc(-c2cc3c(Nc4ccc(F)c(Cl)c4)ncnc3[nH]2)cc1 [Example 1, (3-Chloro-4-fluoro-phenyl)-[6-(4-dimethylaminomethyl-phenyl)-7H-pyrrolo[2,3-d]pyrimidin-4-yl]-amine] | 274 to 276 °C

Row | SMILES | melting point
19 | CCN(CC)Cc1ccc(-c2cc3c(NCc4cc(Cl)ccc4Cl)ncnc3[nH]2)cc1 [Example 101, (2,5-Dichloro-benzyl)-[6-(4-diethylaminomethyl-phenyl)-7H-pyrrolo[2,3-d]pyrimidin-4-yl]-amine] | 255 to 257 °C
20 | CN1CCN(CC(=O)NCc2cccc(-c3cc4c(Nc5ccc(F)c(Cl)c5)ncnc4[nH]3)c2)CC1 [Example 65, N-{3-[4-(3-Chloro-4-fluoro-phenylamino)-7H-pyrrolo[2,3-d]pyrimidin-6-yl]-benzyl}-2-(4-methyl-piperazin-1-yl)-acetamide] | 214 °C
21 | CCN1CCN(Cc2ccc(-c3cc4c(NCc5cccc(C)c5)ncnc4[nH]3)cc2)CC1 [Example 107j, {6-[4-(4-Ethyl-piperazin-1-ylmethyl)-phenyl]-7H-pyrrolo[2,3-d]pyrimidin-4-yl}-(3-methyl-benzyl)-amine] | 250 to 252 °C
22 | CN(C)CC(=O)NCc1cccc(-c2cc3c(Nc4ccc(F)c(Cl)c4)ncnc3[nH]2)c1 [Example 64, N-{3-[4-(3-Chloro-4-fluoro-phenylamino)-7H-pyrrolo[2,3-d]pyrimidin-6-yl]-benzyl}-2-dimethylamino-acetamide] | 272 to 273 °C
23 | CCN1CCN(Cc2ccc(-c3cc4c(NCc5cccc(OC)c5)ncnc4[nH]3)cc2)CC1 [Example 107c, {6-[4-(4-Ethyl-piperazin-1-ylmethyl)-phenyl]-7H-pyrrolo[2,3-d]pyrimidin-4-yl}-(3-methoxy-benzyl)-amine] | 231 to 233 °C
24 | COc1ccc(Nc2ncnc3[nH]c(-c4ccc(CN5CCOCC5)cc4)cc23)cn1 [Example 111, (6-Methoxy-pyridin-3-yl)-[6-(4-morpholin-4-ylmethyl-phenyl)-7H-pyrrolo[2,3-d]pyrimidin-4-yl]-amine] | 263 to 264 °C
25 | O=C(NCc1ccc(-c2cc3c(Nc4ccc(F)c(Cl)c4)ncnc3[nH]2)cc1)c1ccccn1 [Example 59, Pyridine-2-carboxylic acid 4-[4-(3-chloro-4-fluoro-phenylamino)-7H-pyrrolo[2,3-d]pyrimidin-6-yl]-benzylamide] | 340 to 342 °C
26 | COc1cccc(CNc2ncnc3[nH]c(-c4ccc(CN5CCN(C)CC5)cc4)cc23)c1 [Example 107b, (3-Methoxy-benzyl)-{6-[4-(4-methyl-piperazin-1-ylmethyl)-phenyl]-7H-pyrrolo[2,3-d]pyrimidin-4-yl}-amine] | 225 to 227 °C
27 | Clc1ccc(Cl)c(CNc2ncnc3[nH]c(-c4ccc(CN5CCCCC5)cc4)cc23)c1 [Example 100, (2,5-Dichloro-benzyl)-[6-(4-piperidin-1-ylmethyl-phenyl)-7H-pyrrolo[2,3-d]pyrimidin-4-yl]-amine] | 258 to 260 °C
28 | Cc1ccc(Nc2ncnc3[nH]c(-c4cccc(CN5CCN(C)CC5)c4)cc23)cc1O [Example 67, 2-Methyl-5-{6-[3-(4-methyl-piperazin-1-ylmethyl)-phenyl]-7H-pyrrolo[2,3-d]pyrimidin-4-ylamino}-phenol] | 256 to 258 °C
29 | C[C@@H](Nc1ncnc2[nH]c(-c3cccc(CN4CCCC4)c3)cc12)c1ccccc1 [Example 28, ((R)-1-Phenyl-ethyl)-[6-(3-pyrrolidin-1-ylmethyl-phenyl)-7H-pyrrolo[2,3-d]pyrimidin-4-yl]-amine] | 90 to 92 °C
30 | Fc1ccc(Nc2ncnc3[nH]c(-c4ccc(CNCCN5CCOCC5)cc4)cc23)cc1Cl [Example 8b, (3-Chloro-4-fluoro-phenyl)-(6-{4-[(2-morpholin-4-yl-ethyl-amino)-methyl]-phenyl}-7H-pyrrolo[2,3-d]pyrimidin-4-yl)-amine] | 224 to 226 °C
31 | C[C@@H](Nc1ncnc2[nH]c(-c3ccc(CNC(=O)CN4CCCCC4)cc3)cc12)c1ccccc1 [Example 40, N-{4-[4-((R)-1-Phenyl-ethylamino)-7H-pyrrolo[2,3-d]pyrimidin-6-yl]-benzyl}-2-piperidin-1-yl-acetamide] | 194 to 196 °C
32 | CN(C)CC(=O)NCc1ccc(-c2cc3c(Nc4ccc(OCc5ccccc5)cc4)ncnc3[nH]2)cc1 [Example 51, N-{4-[4-(4-Benzyloxy-phenylamino)-7H-pyrrolo[2,3-d]pyrimidin-6-yl]-benzyl}-2-dimethylamino-acetamide] | 233 to 235 °C
33 | COc1cccc(CNc2ncnc3[nH]c(-c4ccc(CN5CCCCC5)cc4)cc23)c1 [Example 107, (3-Methoxy-benzyl)-[6-(4-piperidin-1-ylmethyl-phenyl)-7H-pyrrolo[2,3-d]pyrimidin-4-yl]-amine] | 227 to 229 °C
34 | CCN1CCN(Cc2cccc(-c3cc4c(N[C@H](C)c5ccccc5)ncnc4[nH]3)c2)CC1 [Example 27, {6-[3-(4-Ethyl-piperazin-1-ylmethyl)-phenyl]-7H-pyrrolo[2,3-d]pyrimidin-4-yl}-((R)-1-phenyl-ethyl)-amine] | 128 to 130 °C
35 | CCN1CCN(Cc2ccc(-c3cc4c(NCc5cc[nH]c(=O)c5)ncnc4[nH]3)cc2)CC1 [Example 129, 4-({6-[4-(4-Ethyl-piperazin-1-ylmethyl)-phenyl]-7H-pyrrolo[2,3-d]pyrimidin-4-ylamino}-methyl)-1H-pyridin-2-one] | 291 to 292 °C
